Results published in US3957987A, “Compositions containing a carbonamidoquinoxaline-di-N-oxide and method of using same” (Bayer Aktiengesellschaft, priority 1971, dated 1976).
In brackets after ≈: the same amount, converted by molar mass.

How the values were obtained:
Klebsiella 63 = assay: Minimum inhibitory concentration in vitro, Klebsiella 63; format: cell-based
Excerpt: (§1) As representative of the spectrum of antimicrobial activity for these compounds, the following representative minimum inhibitory concentrations shown on Tables A, B and C can be noted:
(§2) Minimum Inhibitory Concentrations In Vitro, in μg/ml of Medium

Klebsiella 8085 = assay: Minimum inhibitory concentration in vitro, Klebsiella 8085; format: cell-based
Excerpt: as §1, §2

[1] = test system: Staphylococcus aureus 133; assay: Minimum inhibitory concentration in vitro, Staphylococcus aureus 133; format: cell-based
Excerpt: as §1, §2

Streptococcus pyogenes = assay: Minimum inhibitory concentration in vitro, Streptococcus pyogenes; format: cell-based
Excerpt: as §1, §2

Clostridium tetani = assay: microbe, parasite or virus in culture; format: cell-based; conditions: read-out: minimum inhibitory concentration
Clostridium botulinum = assay: microbe, parasite or virus in culture; format: cell-based; conditions: read-out: minimum inhibitory concentration
Mycoplasma MS = assay: Minimum inhibitory concentration, Mycoplasma MS; format: cell-based
Excerpt: (§3) As representative of the spectrum of antimicrobial activity for these compounds, the following representative minimum inhibitory concentrations shown on Tables A, B and C can be noted: […]

Mycoplasma S6 = assay: Minimum inhibitory concentration, Mycoplasma S6; format: cell-based
Mycoplasma gran = assay: Minimum inhibitory concentration, Mycoplasma gran; format: cell-based
[2] = test system: Pasteurella multocida ATCC; assay: Minimum inhibitory concentration, Pasteurella multocida ATCC; format: cell-based
[3] = test system: Alcaligenes faecalis ATCC; assay: Minimum inhibitory concentration, Alcaligenes faecalis ATCC; format: cell-based
[4] = test system: Bordetella bronchiseptica; assay: Minimum inhibitory concentration, Bordetella bronchiseptica; format: cell-based
Aeromonas liquefaciens = assay: Minimum inhibitory concentration, Aeromonas liquefaciens; format: cell-based; conditions: Aeromonas hydrophila
Mycobacterium species = assay: Minimum inhibitory concentration, Mycobacterium species; format: cell-based
Excerpt: as §3

Escherichia coli C 165 = assay: Minimum inhibitory concentration in vitro, Escherichia coli C 165; format: cell-based; conditions: C165
Excerpt: as §1, §2

Escherichia coli A 261 = assay: Minimum inhibitory concentration in vitro, Escherichia coli A 261; format: cell-based; conditions: A261
Excerpt: as §1, §2

Chick Fattening Test = format: in vivo; conditions: for Relative Weight Increase (%) after 14 days / Relative Weight Increase (%) after 28 days: control 100.0
Excerpt: The use of these compounds as feed additives can be seen from the following feeding experiments (Table D).
Chicks in groups of 12 were kept in cages and supplied with water ad libitum and a complete chick feed into which was intimately mixed the indicated amount of the test compound.

| Compound | MIC (Klebsiella 63) [µg/mL] | MIC (Klebsiella 8085) [µg/mL] | MIC [1] [µg/mL] | MIC (Streptococcus pyogenes) [µg/mL] | MIC (Clostridium tetani) [µg/mL] | MIC (Clostridium botulinum) [µg/mL] | MIC (Mycoplasma MS) [µg/mL] | MIC (Mycoplasma S6) [µg/mL] | MIC (Mycoplasma gran) [µg/mL] | MIC [2] [µg/mL] | MIC [3] [µg/mL] | MIC [4] [µg/mL] | MIC (Aeromonas liquefaciens) [µg/mL] | MIC (Mycobacterium species) [µg/mL] | further results |
| --- | --- | --- | --- | --- | --- | --- | --- | --- | --- | --- | --- | --- | --- | --- | --- |
| CCN(CC)C(=O)c1c(C=NNC(=O)OC)[n+]([O-])c2ccccc2[n+]1[O-] [Example 11] | 100 (≈ 277 µM) | 100 (≈ 277 µM) | 100 (≈ 277 µM) | 100 (≈ 277 µM) | 10 (≈ 27.7 µM) | 10 (≈ 27.7 µM) | 100 (≈ 277 µM) | 10 (≈ 27.7 µM) | 10 (≈ 27.7 µM) | 1 (≈ 2.77 µM) | 100 (≈ 277 µM) | 100 (≈ 277 µM) | 100 (≈ 277 µM) | 100 (≈ 277 µM) | – |
| COC(=O)NN=Cc1c(C(=O)NC(C)C)[n+]([O-])c2ccccc2[n+]1[O-] [Example 17] | 100 (≈ 288 µM) | 10 (≈ 28.8 µM) | 100 (≈ 288 µM) | 100 (≈ 288 µM) | 100 (≈ 288 µM) | 100 (≈ 288 µM) | – | 100 (≈ 288 µM) | 100 (≈ 288 µM) | 100 (≈ 288 µM) | 100 (≈ 288 µM) | 100 (≈ 288 µM) | 100 (≈ 288 µM) | 100 (≈ 288 µM) | MIC (Escherichia coli C 165): 100 µg/mL (≈ 288 µM); MIC (Escherichia coli A 261): 100 µg/mL (≈ 288 µM) |
| CNC(=O)c1c(C=NNC(=O)OCCO)[n+]([O-])c2ccccc2[n+]1[O-] [Example 25] | – | – | – | – | 100 (≈ 286 µM) | 1 (≈ 2.86 µM) | 100 (≈ 286 µM) | 100 (≈ 286 µM) | 1 (≈ 2.86 µM) | 100 (≈ 286 µM) | 100 (≈ 286 µM) | 100 (≈ 286 µM) | 100 (≈ 286 µM) | – | – |
| O=C(NCCO)c1c(C=NNC(=O)N2CCOCC2)[n+]([O-])c2ccccc2[n+]1[O-] [Example 29] | – | – | – | – | 100 (≈ 247 µM) | 100 (≈ 247 µM) | – | 100 (≈ 247 µM) | 100 (≈ 247 µM) | 100 (≈ 247 µM) | 100 (≈ 247 µM) | 100 (≈ 247 µM) | 100 (≈ 247 µM) | 40 (≈ 98.9 µM) | – |
| O=C(NCCO)c1c(C=NO)[n+]([O-])c2ccccc2[n+]1[O-] [Example 20] | – | – | – | – | 100 (≈ 342 µM) | 100 (≈ 342 µM) | – | 100 (≈ 342 µM) | 100 (≈ 342 µM) | 100 (≈ 342 µM) | 100 (≈ 342 µM) | 100 (≈ 342 µM) | 100 (≈ 342 µM) | 100 (≈ 342 µM) | Relative Weight Increase (%) after 14 days (Chick Fattening Test; Test 1, 50 ppm in feed): 107.4%; Absolute Weight Increase (g) of each animal after 14 days (Chick Fattening Test; Test 1, 50 ppm in feed, control 111.5): 119.9 g; Average Weight of each animal after 14 days (Chick Fattening Test; Test 1, 50 ppm in feed, control 170.8, initial weight 59.3 g): 179.2; Relative Weight Increase (%) after 28 days (Chick Fattening Test; Test 1, 50 ppm in feed): 104.1%; Absolute Weight Increase (g) of each animal after 28 days (Chick Fattening Test; Test 1, 50 ppm in feed, control 275.9): 287.3 g; Average Weight of each animal after 28 days (Chick Fattening Test; Test 1, 50 ppm in feed, control 335.2, initial weight 59.3 g): 346.6; Relative Weight Increase (%) after 14 days (Chick Fattening Test; Test 2, 10 ppm in feed): 104.5%; Absolute Weight Increase (g) of each animal after 14 days (Chick Fattening Test; Test 2, 10 ppm in feed, control 109.2): 114.2 g; Average Weight of each animal after 14 days (Chick Fattening Test; Test 2, 10 ppm in feed, control 168.3, initial weight 59.1 g): 173.3; Relative Weight Increase (%) after 28 days (Chick Fattening Test; Test 2, 10 ppm in feed): 102.2%; Absolute Weight Increase (g) of each animal after 28 days (Chick Fattening Test; Test 2, 10 ppm in feed, control 292.5): 299.2 g; Average Weight of each animal after 28 days (Chick Fattening Test; Test 2, 10 ppm in feed, control 351.6, initial weight 59.1 g): 358.3; Relative Weight Increase (%) after 14 days (Chick Fattening Test; Test 2, 20 ppm in feed): 106.8%; Absolute Weight Increase (g) of each animal after 14 days (Chick Fattening Test; Test 2, 20 ppm in feed, control 109.2): 116.7 g; Average Weight of each animal after 14 days (Chick Fattening Test; Test 2, 20 ppm in feed, control 168.3, initial weight 59.1 g): 175.8; Relative Weight Increase (%) after 28 days (Chick Fattening Test; Test 2, 20 ppm in feed): 102.8%; Absolute Weight Increase (g) of each animal after 28 days (Chick Fattening Test; Test 2, 20 ppm in feed, control 292.5): 300.9 g; Average Weight of each animal after 28 days (Chick Fattening Test; Test 2, 20 ppm in feed, control 351.6, initial weight 59.1 g): 360.0 |
| CCCNC(=O)c1c(C=NO)[n+]([O-])c2ccccc2[n+]1[O-] [Example 23] | – | – | – | – | 100 (≈ 344 µM) | 1 (≈ 3.44 µM) | 100 (≈ 344 µM) | 100 (≈ 344 µM) | 1 (≈ 3.44 µM) | 100 (≈ 344 µM) | 100 (≈ 344 µM) | 100 (≈ 344 µM) | 100 (≈ 344 µM) | 100 (≈ 344 µM) | – |
| CCOC(=O)NN=Cc1c(C(=O)NC)[n+]([O-])c2ccccc2[n+]1[O-] [Example 26] | 100 (≈ 300 µM) | 10 (≈ 30 µM) | 100 (≈ 300 µM) | 100 (≈ 300 µM) | 100 (≈ 300 µM) | 1 (≈ 3 µM) | 100 (≈ 300 µM) | 100 (≈ 300 µM) | 0.1 (≈ 0.3 µM) | 100 (≈ 300 µM) | 100 (≈ 300 µM) | 100 (≈ 300 µM) | 100 (≈ 300 µM) | – | MIC (Escherichia coli C 165): 100 µg/mL (≈ 300 µM) |
| COC(=O)NN=Cc1c(C(=O)NCCO)[n+]([O-])c2ccccc2[n+]1[O-] [Example 14] | – | 100 (≈ 286 µM) | 100 (≈ 286 µM) | 100 (≈ 286 µM) | 100 (≈ 286 µM) | 100 (≈ 286 µM) | – | 100 (≈ 286 µM) | 100 (≈ 286 µM) | 100 (≈ 286 µM) | 100 (≈ 286 µM) | 100 (≈ 286 µM) | 100 (≈ 286 µM) | – | – |
| O=C(NN=Cc1c(C(=O)NCCO)[n+]([O-])c2ccccc2[n+]1[O-])OCCO [Example 28] | – | – | – | – | 100 (≈ 264 µM) | 100 (≈ 264 µM) | – | 100 (≈ 264 µM) | 100 (≈ 264 µM) | 100 (≈ 264 µM) | 100 (≈ 264 µM) | 100 (≈ 264 µM) | 100 (≈ 264 µM) | – | – |
